This is an account of results in PMC10774418, “A cyclin D1 intrinsically disordered domain accesses modified histone motifs to govern gene transcription” (Oncogenesis, 2024).

Assay [1] relates to γ-H2AX in cyclin D1^-/- rescue MEFs. Put plainly: γ-H2AX abundance / H2A Ser139 phosphorylation after doxorubicin. The assay is classed as cell-based, mouse. The settings on record: cyclin D1^WT rescued cyclin D1^-/- MEFs, p20 and p21, Western blot. As for the experimental part: Whole-cell lysates (50 μg) were separated by 10% SDS-PAGE gel, and the proteins were transferred to nitrocellulose membrane for Western blotting using the following antibodies: anti-FLAG antibody (M2 Aldrich, #F1804, St. Louis, MO), anti-GST (Cell Signaling, #2624, Danvers, MA), anti-β-tubulin (Santa Cruz Biotechnology, #sc-55529, Santa Cruz, CA), anti-Vinculin (Sigma-Aldrich, #V9131 St. Louis, MO), Topoisomerase 2 A (Santa Cruz Biotechnology, #sc-365916, Santa Cruz, CA), Histone 2B Serine 14 P (Santa Cruz Biotechnology, #sc-31671, Santa Cruz, CA), Histone 2B (Santa Cruz Biotechnology, #sc-10808, Santa Cruz, CA), γH2A.X (Cell Signaling, #9718, Danvers, MA) and H2A.X (Cell Signaling, #2595, Danvers, MA).
(A western blot detects proteins with antibodies after separation by electrophoresis.)

For assay [2], the system named is cyclin D1-/- 3T3 rescue cells. Put plainly: Etoposide sensitivity (cell viability). Format: cell-based, mouse. Conditions: 5, 10 µM, 24 h, N=6.
For the next assay, the system named is CDK4. Put plainly: Mammalian two-hybrid, 293 T. Format: cell-based, human. Conditions: 293 T cells, Fig. S7. As for the experimental part: Mammalian two-hybrid was conducted following the manufacturer’s instruction (Promega, Madison, WI). The human CDK4 cDNA was cloned into pBIND vector, and the human cyclin D1 cDNA (wild type or mutants) was cloned into pACT vector to generate fusion proteins with the DNA-binding domain of Gal4 (Gal4-CDK4), and the activation domain of VP16 (VP16-cyclin D1), respectively. Gal4-CDK4, VP16-cyclin D1 and pG5-Luc reporter containing five copies of Gal4 binding sites upstream of a minimal TATA box and the firefly luciferase gene (Promega) were co-transfected into MCF-7 or HEK-293T cells with Superfect reagent 48 h after transfection, the cells were lysed, and the amount of luciferase activity was quantitated. Transfection efficiency was normalized using renilla luciferase.

Turning to `COc1cccc2c1C(=O)c1c(O)c3c(c(O)c1C2=O)C[C@@](O)(C(=O)CO)C[C@@H]3O[C@H]1C[C@H](N)[C@H](O)[C@H](C)O1` [doxorubicin], the γ-H2AX abundance entry in assay [1] was “increased”.

Regarding `COc1cc([C@@H]2c3cc4c(cc3[C@@H](O[C@@H]3O[C@@H]5CO[C@@H](C)O[C@H]5[C@H](O)[C@H]3O)[C@H]3COC(=O)[C@H]23)OCO4)cc(OC)c1O` [etoposide], the sensitivity to etoposide result in assay [2] (cyclin D1 rescued cells) is “more sensitive”. Moreover, the “change in sensitivity to etoposide” value in assay [2] (upon deletion of the E domain) is reported as “modest but significant reduction in sensitivity”.

On to “E278/280 A: cyclin D1 double point mutant within the E region”, for which, in the assay on CDK4, the CDK4 binding entry is “maintained enhanced binding”.

For the compound “E278A: cyclin D1 point mutant within the E region”, the CDK4 binding result with CDK4 is on record as “maintained enhanced binding”.

For the compound “E280A: cyclin D1 point mutant within the E region”, the CDK4 binding result in the assay on CDK4 is recorded as “maintained enhanced binding”.
